According to PMC4648260 (Chembiochem : a European journal of chemical biology, 2015):

Key:
RhlR [1] = target: T1, RhlR (Pseudomonas aeruginosa, UniProt P54292); assay: RhlR agonism, P. aeruginosa GFP reporter strain PAO-JP2/prhlI-LVAgfp; format: cell-based; details: compound at 100 μM in the presence of 100 nM OdDHL, 900 μM BHL set to 100% activation, error ±10%, selected data reproduced from ref. [23]
RhlR [2] = target: T1, RhlR; format: cell-based; details: for RhlR-agonistic selectivity over LasR and QscR: criterion: at least 2.5-fold more active in RhlR agonism assays than in LasR and QscR agonism assays at 100 μM; for EC50: read-out: EC50 (RhlR agonism), E. coli reporter, dose-response 100 nM – 1 mM
RhlR [3] = target: T1, RhlR; assay: RhlR antagonism; format: cell-based
QscR = QscR (Pseudomonas aeruginosa, UniProt G3XD77); details: compound at 100 μM against 15 nM OdDHL; untreated culture set to 100%; error ±10%
LasR = LasR (Pseudomonas aeruginosa, UniProt P25084); assay: LasR antagonism; format: cell-based; details: compound at 100 μM against 2 nM OdDHL; untreated culture set to 100%; negative values indicate receptor agonism; error ±10%
RhlR [4] = target: T1, RhlR; format: cell-based; details: E. coli reporter; for Inhibition (%) / % RhlR inhibition: compound at 100 μM in the presence of 10 μM BHL, untreated culture set to 100%, error ±10%, selected data reproduced from ref. [23]

T1 sequence (P54292 whole entry): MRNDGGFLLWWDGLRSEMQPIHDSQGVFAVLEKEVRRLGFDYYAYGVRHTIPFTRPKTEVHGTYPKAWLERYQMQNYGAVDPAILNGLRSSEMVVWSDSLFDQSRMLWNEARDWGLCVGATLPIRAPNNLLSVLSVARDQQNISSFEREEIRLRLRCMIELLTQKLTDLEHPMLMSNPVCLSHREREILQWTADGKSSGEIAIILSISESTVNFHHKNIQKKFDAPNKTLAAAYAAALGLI
Chain of LasR (P25084 whole entry): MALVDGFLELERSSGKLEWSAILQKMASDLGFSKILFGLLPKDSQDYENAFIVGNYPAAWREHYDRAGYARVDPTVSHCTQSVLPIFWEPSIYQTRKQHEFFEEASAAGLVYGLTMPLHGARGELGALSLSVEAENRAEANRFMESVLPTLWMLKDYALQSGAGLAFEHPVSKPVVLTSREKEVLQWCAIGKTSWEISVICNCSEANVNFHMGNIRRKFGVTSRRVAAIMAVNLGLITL

| Structure (SMILES) | % RhlR activation (RhlR [1]) | RhlR-agonistic selectivity over LasR and QscR (RhlR [2]) | EC50 (RhlR [2]) | % QscR inhibition (QscR) | % LasR inhibition (LasR) | Inhibition (%) / % RhlR inhibition (RhlR [4]) | further results |
| --- | --- | --- | --- | --- | --- | --- | --- |
| O=C(Cc1ccccc1)NC1CCOC1=O (stereo not drawn) [Compound C1] | 53% | displayed selectivity | 14.7 µM |  |  |  |  |
| O=C(COc1ccc(I)cc1)N[C@H]1CCOC1=O [Compound E22] |  |  |  | 18% | −9% | 74% | fold reduction in potency, P. aeruginosa vs E. coli (RhlR [3]; IC50 67.2 μM in P. aeruginosa vs 17.3 μM in E. coli): ~ 4 fold; % RhlR inhibition (RhlR [3]; P. aeruginosa reporter, compound at 100 μM against 30 μM BHL in the presence of 100 nM OdDHL, cells with 100 nM OdDHL alone set to 100% inhibition, error ±10%): 92% |
| CSc1cccc(CC(=O)N[C@H]2CCOC2=O)c1 [Compound E7] |  |  | 6.6 µM |  |  |  |  |
| O=C(Cc1cccc(Cl)c1)NC1CCOC1=O (stereo not drawn) [Compound C6] | 26% | displayed selectivity | 5.5 µM |  |  |  |  |
| O=C(Cc1ccc2ccccc2c1)NC1CCOC1=O (stereo not drawn) [Compound E12] |  |  |  | 60% | 81% | 77% |  |
| O=C(Cc1ccccc1)N[C@@H]1CCOC1=O [Compound B4] |  |  |  | 37% | 15% | 66% |  |
| O=C(Cc1ccc(F)cc1)NC1CCOC1=O (stereo not drawn) [Compound C2] | 28% | displayed selectivity | 9 µM |  |  |  |  |
| O=C(Cc1ccccc1F)N[C@H]1CCOC1=O [Compound C4] | 24% | displayed selectivity |  |  |  |  |  |
| O=C(Cc1ccc(I)cc1)N[C@H]1CCOC1=O [Compound C10] |  |  |  | −79% | 58% | 84% | Maximum RhlR inhibition (RhlR [4]; antagonism dose curves, highest concentrations tested): near complete RhlR inhibition |
| O=C(CCc1ccccc1)NC1CCOC1=O (stereo not drawn) [Compound E30] |  |  | 6.6 µM |  |  |  |  |
| O=C(Cc1ccccc1I)NC1CCOC1=O (stereo not drawn) [Compound C12] | 11% | displayed selectivity |  |  |  |  |  |
| O=C(Cc1cccc(F)c1)NC1CCOC1=O (stereo not drawn) [Compound C3] | 28% | displayed selectivity |  |  |  |  |  |
| CCCC(=O)N[C@H]1CCOC1=O [BHL, N-butanoyl L-homoserine lactone, reference compound] |  |  | 11.1 µM |  |  |  |  |
